From patent US3997506A (priority 1974, dated 1976)
Like-named read-outs stand apart in the source and are kept apart here.

Legend:
[1] = system: Sprague Dawley SIV 50 rat; type: in vivo, male and female Sprague Dawley SIV 50 rat; settings: for Death rate: 10 days
Excerpt: The high toxicity of the new derivative of colchicine (N-desacetyl-N-adamantoyl-thiocolchicine) has been investigated through the oral way with the male and female Sprague Dawley SIV 50 rat having an average weight of 100 g.
Two experiments have been carried out. In the first one, only the high toxicity of the derivative has been studied; in the second one, the high toxicity of the derivative has been compared with that of colchicine.
The derivative and colchicine have been administered in suspension in propylene glycol through an oesophageal tube at the rate of 2 ml per rat for the first experiment and of 1 ml for the second one.
The animals have been observed for 10 days.

[2] = General toxicity statement (LD50 and toxicity relative to thiocolchicine and colchicine); settings: in vivo; of the weight of the body of animals
[3] = system: animals; assay: as above; settings: in vivo
[4] = system: human leucocytes; assay: in vitro; type: cell-based; settings: for % of dead cells: C6 = 50 μg/ml; for cytotoxicity, colchicine versus derivative (in words): C1 = 2.5 μg/ml
[5] = system: viruses; assay: Antiviral activity (statement); settings: general statement
[6] = system: phagocytosis; settings: literature, cited from earlier work
[7] = system: mouse; settings: intraperitoneal, literature; cited from earlier work
[8] = system: man; settings: may sometimes be of 6 mg only, literature; cited from earlier work
[9] = system: rat; settings: intravenous, literature; cited from earlier work
[10] = system: cat; settings: intravenous, literature; cited from earlier work

With COc1cc2c(c(OC)c1OC)-c1ccc(SC)c(=O)cc1C(NC(=O)C13CC4CC(CC(C4)C1)C3)CC2 (single isomer, unassigned) [Derivative, N-desacetyl-N-adamantoyl-thiocolchicine] the “deaths (in words)” value ([1]; 3 g/kg) was “no death has been detected”, the Death rate ([1]; first experiment, 2.000 mg/kg oral) was 0/10 and the Death rate ([1]; first experiment, 3.000 mg/kg oral) was 0/10. The Death rate ([1]; second experiment, 100 mg/kg oral) was 0/6, the Death rate ([1]; second experiment, 500 mg/kg oral) was 0/6 and the Death rate ([1]; second experiment, 1,000 mg/kg oral) was 0/6. The Death rate ([1]; second experiment, 2,000 mg/kg oral) was 0/6, the Death rate ([1]; second experiment, 3,000 mg/kg oral) was 0/6 and the LD50 [2] was about 3000 mg/kg. The “high toxicity relative to colchicine” value [3] was “about 3,000 times less than that of colchicine”, the “toxicity relative to thiocolchicine” value [3] was 30 times less toxic than thiocolchicine and the “cytotoxicity, cultures I and II (in words)” value [4] was “does not seem to be very different from that of colchicine or methanol after 23 hours of incubation; however for longer periods of time and more especially with concentrations C5 and C6 it becomes more substantial”. The “% of dead cells” value ([4]; first experimentation, 68 hours) was “very few”, the “% of dead cells” value ([4]; first experimentation, 72 hours) was “very few” and the “cytotoxicity, colchicine versus derivative (in words)” value ([4]; first experimentation) was “substantially the same”. For the same compound, the “cytotoxicity compared with colchicine (in words)” value ([4]; first experimentation, higher concentrations) was “more cytotoxic than colchicine itself” and the “activity against viruses (in words)” value [5] was “active against many viruses”.

With COc1cc2c(c(OC)c1OC)-c1ccc(OC)c(=O)cc1[C@@H](NC(C)=O)CC2 [Colchicine, colchicine, reference compound] the “rats dead after 24 hours” value ([1]; 100 mg/kg oral) was 1 rat, the “rats dead after 48 hours” value ([1]; 100 mg/kg oral) was 5 rats and the “rats dead after 24 hours” value ([1]; 500 mg/kg oral) was 5 rats. The “rats dead after 48 hours” value ([1]; 500 mg/kg oral) was 1 rat, the “cytotoxicity, cultures I and II (in words)” value [4] was “practically identical with that due to the methanol” and the “cytotoxicity, colchicine versus derivative (in words)” value ([4]; first experimentation) was “substantially the same”. For the same compound, the “% phagocytosis” value ([6]; 0.004 μg of colchicine) was 68.6 ± 3.7%, the “% phagocytosis” value ([6]; 0.04 μg of colchicine) was 54.2 ± 5.4% and the “% phagocytosis” value ([6]; 0.4 μg of colchicine) was 39.8 ± 1.2%. For the same compound, the LD50 [7] was 1 mg/kg, the lethal dose [8] was 6 mg and the LD50 [9] was 1.7 mg/kg. For the same compound, the LD50 [10] was 0.25 mg/kg.
